# In ChEMBL document CHEMBL3588771, “Discovery of 5-Amino-N-(1H-pyrazol-4-yl)pyrazolo[1,5-a]pyrimidine-3-carboxamide Inhibitors of IRAK4” (ACS Med Chem Lett, 2015):
# Columns and labels:
# in vitro [1] = details: dog, MDCK
# in vivo [2] = details: rat, po, 1 mg/kg
# in vitro [3] = details: pig, LLC-PK1
# in vivo [4] = details: rat, plasma, iv, 0.5 mg/kg
Compound,Papp (in vitro [1]) [×10⁻⁶ cm/s],bioavailability (in vivo [2]) [%],Papp (in vitro [3]) [×10⁻⁶ cm/s],clearance (in vivo [4]) [mL/min/kg]
Cn1cc(NC(=O)c2cnn3ccc(N[C@@H]4CCCC[C@@H]4N)nc23)c(C(F)(F)F)n1,16,5,–,98
Cn1cc(NC(=O)c2cnn3ccc(N[C@@H]4CCCC[C@@H]4N)nc23)c(C(F)F)n1,13,–,–,–
Cn1cc(NC(=O)c2cnn3ccc(N[C@@H]4CCCC(F)(F)[C@@H]4N)nc23)c(C(F)F)n1,29,46,–,29
Cn1cc(NC(=O)c2cnn3ccc(N[C@@H]4CCC(F)(F)C[C@@H]4N)nc23)c(C(F)(F)F)n1,26,–,–,–
Cn1cc(NC(=O)c2cnn3ccc(N4CC[C@H](F)[C@@H](N)C4)nc23)c(C(F)(F)F)n1,28,–,–,–

# Further lines, results first:
Papp (in vitro [1]) [×10⁻⁶ cm/s],bioavailability (in vivo [2]) [%],Papp (in vitro [3]) [×10⁻⁶ cm/s],clearance (in vivo [4]) [mL/min/kg],Compound
< 2,–,–,–,Cn1cc(NC(=O)c2cnn3ccc(N[C@H]4CCCC[C@H]4N)nc23)c(C(N)=O)n1
–,0,2,56,Cn1cc(NC(=O)c2cnn3ccc(N[C@@H]4CCCC[C@@H]4N)nc23)c(C(N)=O)n1
17,–,–,–,Cn1cc(NC(=O)c2cnn3ccc(N[C@@H]4CCCC[C@@H]4N)nc23)c(C#N)n1
